In patent publication US12343319B2, “Compositions and methods for treatment of diseases and disorders” (Atai Therapeutics Inc., priority 2023, dated 2025):
Like-named read-outs stand apart in the source and are kept apart here.

Key:
5-HT2B = molecular target: T1, 5-HT2B (Homo sapiens, UniProt P41595); assay: Radioligand binding, 5-HT2B; conditions: for Max % inhibition: radioligand binding, human 5-HT2B
T1 construct: expressed in transfected cells

5-HT2A (mouse) = 5-HT2A (mouse) (Mus musculus, UniProt P35363); assay: β-Arrestin, mouse 5-HT2A; format: cell-based; conditions: for Emax: β-Arrestin, mouse 5-HT2A, read-out: Emax (%5-HT)
Description: Overall, in vitro activity at rodent 5-HT2A and 5-HT2B receptors is consistent with the human receptor results, with compound 2-1 acting as a potent and selective 5-HT2A agonist.
Overall, in vitro activity at rodent 5-HT2A and […] receptors is consistent with the human receptor results, with compound 2-2 acting as a potent and selective 5-HT2A agonist. In Table 5, ND indicates not determined.

5-HT2A receptor = 5-HT2A receptor (Mus musculus, UniProt P35363); assay: Mouse head twitch response (HTR); format: in vivo; set-up: endogenous in cells; host or cells: adult male C57BL/6J mice, in vivo; conditions: for ED50: mouse
Description: The head twitch response (HTR) assay in rodents is commonly used as a behavioral proxy for 5-HT2A receptor activation. For classical serotonergic psychedelics, mouse HTR potency correlates with potency of subjective effects in humans. The ability of compound 2-1 to induce HTR in mice was assessed using a validated and automated detection system. Briefly, adult male C57BL/6J mice surgically prepared with a small neodymium magnet (4.57 mm×4.57 mm×2.03 mm) attached to the cranium were injected intraperitoneally (i.p.) with single doses of compound 2-1 (0.3, 1, 3, 10, 30 mg/kg, based on weight of the free base) or 40% (w/v) 2-HPBCD (hydroxypropyl-beta-cyclodextrin) vehicle (n=5-6 mice per treatment). In a 5-HT2A receptor antagonism study, M100907, a 5-HT receptor antagonist (0.001, 0.01, 0.1 mg/kg, i.p.) was administered 20 minutes prior to compound 2-1. Immediately after compound 2-1 injection, the mouse was placed individually in a glass cylinder surrounded by a magnetometer coil. HTR were recorded for 30 minutes and analyzed using a validated technique based on artificial intelligence. […] In FIG. 1A, FIG. 1B, and FIG. 1C, HTR data were analyzed using a 1-way Analysis of Variance (ANOVA) followed by Dunnett's test **p<0.01, ***p<0.001, ****p<0.0001 vs. vehicle).
The HTR assay in rodents is commonly used as a behavioral proxy for 5-HT2A receptor activation. For classical serotonergic psychedelics, mouse HTR potency correlates with potency of subjective effects in humans. The ability of compound 2-2 to induce HTR in mice was assessed using a validated and automated detection system. Briefly, adult male C57BL/6J mice surgically prepared with a small neodymium magnet (4.57 mm×4.57 mm×2.03 mm) attached to the cranium were injected intraperitoneally (i.p.) with single doses of compound 2-2 (0.3, 1, 3, 10, 30 mg/kg, based on weight of the free base) or 40% (w/v) 2-HPBCD vehicle (n=5-6 mice per treatment). In a 5-HT2A receptor antagonism study, M100907 (0.001, 0.01, 0.1 mg/kg, i.p.) was administered 20 minutes prior to compound 2-2. Immediately after compound 2-2 injection, the mouse was placed individually in a glass cylinder surrounded by a magnetometer coil. HTR were recorded for 30 minutes and analyzed using a validated technique based on artificial intelligence. […] HTR were analyzed using a 1-way Analysis of Variance (ANOVA) followed by Dunnett's test (*p<0.05, **p<0.01, ***p<0.001, ****p<0.0001 vs. vehicle).

5-HT2A = 5-HT2A (Homo sapiens, UniProt P28223); assay: Ca++ (calcium mobilization), 5-HT2A; format: cell-based; set-up: expressed in transfected cells; conditions: for Emax: read-out: Emax (%5-HT)
Description: In vitro pharmacology studies were performed to evaluate the effects of compound 2-1 on functional activity of several 5-HT receptors using recombinant target overexpression cell culture systems. The effect of compound 2-1 on G protein-dependent signaling was investigated at 5-HT2A, 5-HT2B, and 5-HT2C receptors with calcium mobilization and IPOne assays; and at 5-HT1A, 5-HT1B, 5-HT1F, 5-HT5A, and 5-HT7D receptors with a cAMP assay. G protein-independent signaling was investigated at the 5-HT2A receptor with a β-Arrestin assay.
In vitro pharmacology studies were performed to evaluate the effects of compound 2-2 on functional activity at several 5-HT receptors using recombinant target overexpression cell culture systems. The effect of compound 2-2 on G protein-dependent signaling was investigated at 5-HT2A, 5-HT2B, and 5-HT2C receptors with calcium mobilization and IPOne assays; and at 5-HT1A, 5-HT1B, 5-HT1F, 5-HT5A, and 5-HT7D receptors with a cAMP assay. G protein-independent signaling was investigated at the 5-HT2A receptor with a β-arrestin assay. […] In Table 4, 5-HT receptor selectivity was calculated using ΔΔlog(Emax/EC50). Assay reference α-Me-5-HT or 5-HT was used for normalization at each receptor (5-HT2A/5-HT2B selectivity=1; 5-HT2A/5-HT2C selectivity=1). ND in Table 4 indicates, not determined, plateau was not reached within the concentration range tested to determine Emax.

[1] = ip, C57BL/6J mice, 30 minutes, read-out: HTR 50% effective dose (ED50)

T1 sequence (P41595 whole entry): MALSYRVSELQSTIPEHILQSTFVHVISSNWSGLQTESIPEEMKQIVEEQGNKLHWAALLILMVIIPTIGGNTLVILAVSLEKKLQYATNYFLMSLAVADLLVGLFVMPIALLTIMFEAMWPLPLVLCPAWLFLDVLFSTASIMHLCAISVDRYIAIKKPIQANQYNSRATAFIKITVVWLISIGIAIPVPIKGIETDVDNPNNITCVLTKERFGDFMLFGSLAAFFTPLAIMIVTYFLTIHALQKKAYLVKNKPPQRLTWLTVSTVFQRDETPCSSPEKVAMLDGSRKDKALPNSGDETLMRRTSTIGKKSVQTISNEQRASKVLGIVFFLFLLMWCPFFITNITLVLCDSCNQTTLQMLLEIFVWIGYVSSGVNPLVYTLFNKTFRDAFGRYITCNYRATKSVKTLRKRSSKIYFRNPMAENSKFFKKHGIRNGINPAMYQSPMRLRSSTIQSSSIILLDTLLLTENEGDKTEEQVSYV
Chain of 5-HT2A (P28223 whole entry): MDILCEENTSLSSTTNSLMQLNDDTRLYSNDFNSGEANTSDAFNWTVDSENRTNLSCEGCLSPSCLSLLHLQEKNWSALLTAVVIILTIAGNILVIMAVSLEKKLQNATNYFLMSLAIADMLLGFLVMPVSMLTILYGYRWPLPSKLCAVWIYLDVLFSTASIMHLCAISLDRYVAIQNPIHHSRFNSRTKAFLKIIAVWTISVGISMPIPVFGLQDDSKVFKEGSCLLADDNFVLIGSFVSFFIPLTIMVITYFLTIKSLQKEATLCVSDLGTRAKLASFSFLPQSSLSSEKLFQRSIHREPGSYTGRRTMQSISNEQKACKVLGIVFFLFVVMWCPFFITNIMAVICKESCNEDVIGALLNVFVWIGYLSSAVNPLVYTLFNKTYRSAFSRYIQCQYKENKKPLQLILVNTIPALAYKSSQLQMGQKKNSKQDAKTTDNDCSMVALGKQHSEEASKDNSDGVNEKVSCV
Chain of 5-HT2A receptor (P35363 whole entry): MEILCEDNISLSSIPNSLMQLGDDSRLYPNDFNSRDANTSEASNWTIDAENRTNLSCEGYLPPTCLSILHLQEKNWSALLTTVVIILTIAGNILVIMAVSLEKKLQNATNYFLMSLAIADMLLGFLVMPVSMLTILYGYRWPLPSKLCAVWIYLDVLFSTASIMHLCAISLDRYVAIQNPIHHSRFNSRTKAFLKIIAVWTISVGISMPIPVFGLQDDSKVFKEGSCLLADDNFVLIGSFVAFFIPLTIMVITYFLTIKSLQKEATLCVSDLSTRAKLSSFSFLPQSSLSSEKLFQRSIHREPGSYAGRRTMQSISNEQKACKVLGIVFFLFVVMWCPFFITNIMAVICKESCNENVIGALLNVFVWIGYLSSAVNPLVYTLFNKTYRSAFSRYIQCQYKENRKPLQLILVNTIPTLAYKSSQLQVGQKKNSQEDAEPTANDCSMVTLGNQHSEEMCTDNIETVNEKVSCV
Chain of 5-HT2A (mouse) (P35363 whole entry): as above

SMILES	IC50 (5-HT2B) [nM]	Max % inhibition (5-HT2B) [%]	EC50 (5-HT2A (mouse)) [nM]	Emax (5-HT2A (mouse)) [%]	ED50 (5-HT2A receptor; [1]) [mg/kg]	ED50 (5-HT2A receptor; po, mice, read-out: HTR ED50) [mg/kg]	EC50 (5-HT2A) [nM]	Emax (5-HT2A) [%]	shape of HTR dose-response curve (5-HT2A receptor; 0.3-30 mg/kg i.p.)	HTR compared to vehicle (5-HT2A receptor; 3 and 10 mg/kg, i.p.)	HTR after M100907 pretreatment (5-HT2A receptor; M100907 0.001, 0.01, 0.1 mg/kg i.p. 20 minutes prior, compound i.p.)	HTR compared to vehicle (5-HT2A receptor; oral, 30 mg/kg)
COc1ccc(OC)c(CCNCc2cc(C)cc(F)c2)c1 [Compound 2-2, 2-(2,5-dimethoxyphenyl)-N-(3-fluoro-5-methylbenzyl)ethan-1-amine]	321	99.56	21.8	60.2	3.2	13.7	9	88	–	–	–	–
COc1ccc(OC)c(CCNCc2cc(C)cc(Cl)c2)c1 [Compound 2-1, N-(3-chloro-5-methylbenzyl)-2-(2,5-dimethoxyphenyl)ethan-1-amine]	84.9	102.5	4.37	65	1.7	15.7	4.24	93.3	inverted “U”-shaped	significantly increased	significant dose-dependent attenuation	increased HTR significantly
